Data: patent US9359348B2, “Cyclopropyl imidazopyridine PDE10 inhibitors” (Merck Sharp & Dohme Corp., priority 2012, dated 2016)

The compounds below were run against human PDE10A2 (Homo sapiens (Human), UniProt Q9Y233) (assay: PDE10 fluorescence polarization (IMAP FP) inhibition assay). Details: FAM-labeled cAMP 50 nM, room temperature.
human PDE10A2, sequence (Q9Y233 267-1055): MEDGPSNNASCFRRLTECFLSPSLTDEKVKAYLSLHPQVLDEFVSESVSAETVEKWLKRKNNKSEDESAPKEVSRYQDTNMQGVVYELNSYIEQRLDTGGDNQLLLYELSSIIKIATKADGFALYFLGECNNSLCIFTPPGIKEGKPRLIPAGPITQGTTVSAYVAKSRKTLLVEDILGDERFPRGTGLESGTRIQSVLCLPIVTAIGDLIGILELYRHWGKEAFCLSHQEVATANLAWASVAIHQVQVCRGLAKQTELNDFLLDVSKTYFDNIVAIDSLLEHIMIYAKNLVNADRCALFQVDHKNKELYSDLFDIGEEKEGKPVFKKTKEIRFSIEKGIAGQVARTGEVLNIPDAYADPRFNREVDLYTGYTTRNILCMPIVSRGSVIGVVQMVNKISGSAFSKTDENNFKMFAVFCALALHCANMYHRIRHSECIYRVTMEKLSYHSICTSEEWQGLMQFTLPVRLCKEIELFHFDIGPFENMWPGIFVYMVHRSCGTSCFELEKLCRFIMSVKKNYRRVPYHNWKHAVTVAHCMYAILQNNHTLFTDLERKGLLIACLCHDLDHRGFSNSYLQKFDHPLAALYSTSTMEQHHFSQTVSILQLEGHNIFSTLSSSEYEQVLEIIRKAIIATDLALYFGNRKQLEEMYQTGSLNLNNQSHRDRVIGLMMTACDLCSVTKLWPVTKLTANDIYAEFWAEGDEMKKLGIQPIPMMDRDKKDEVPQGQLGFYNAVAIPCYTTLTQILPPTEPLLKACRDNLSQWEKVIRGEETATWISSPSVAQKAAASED
Assay type: biochemical
Protocol: The activity of the compounds in accordance with the present invention as PDE10 inhibitors may be readily determined without undue experimentation using a fluorescence polarization (FP) methodology that is well known in the art (Huang, W., et al., J. Biomol Screen, 2002, 7: 215).
In a typical experiment the PDE10 inhibitory activity of the compounds of the present invention was determined in accordance with the following experimental method. PDE10A2 was amplified from human fetal brain cDNA (Clontech, Mountain View, Calif.) using a forward primer corresponding to nucleotides 56-77 of human PDE10A2 (Accession No. AF127480, Genbank Identifier 4894716), containing a Kozak consensus sequence, and a reverse primer corresponding to nucleotides 2406-2413 of human PDE10A2 (Accession No. AF127480, Genbank Identifier 4894716). Amplification with Easy-A polymerase (Stratagene, La Jolla, Calif.) was 95° C. for 2 minutes followed by thirty three cycles of 95° C. for 40 seconds, 55° C. for 30 seconds, and 72° C. for 2 minutes 48 seconds. Final extension was 72° C. for 7 minutes. The PCR product was TA cloned into pcDNA3.2-TOPO (Invitrogen, Carlsbad, Calif.) according to standard protocol. AD293 cells with 70-80% confluency were transiently transfected with human PDE10A2/pcDNA3.2-TOPO using Lipofectamine 2000 according to manufacturer specifications (Invitrogen, Carlsbad, Calif.). Cells were harvested 48 hours post-transfection and lysed by sonication (setting 3, 10×5 sec pulses) in a buffer containing 20 mM HEPES, 1 mM EDTA and protease inhibitor cocktail (Roche). Lysate was collected by centrifugation at 75,000 xg for 20 minutes. Supernatant containing the cytoplasmic fraction was used for evaluation of PDE10A2 activity. The fluorescence polarization assay for cyclic nucleotide phosphodiesterases was performed using an IMAP® FP kit supplied by Molecular Devices, Sunnyvale, Calif. (product # R8139). IMAP® technology has been applied previously to phosphodiesterase assays (Huang, W., et al., J. Biomol Screen, 2002, 7: 215). Assays were performed at room temperature in 384-well microtiter plates with an incubation volume of 20.2 μL. Solutions of test compounds were prepared in DMSO and serially diluted with DMSO to yield 8 μL of each of 10 solutions differing by 3-fold in concentration, at 32 serial dilutions per plate. 100% inhibition is determined using a known PDE10 inhibitor, which can be any compound that is present at 5,000 times its Ki value in the assay described as follows, such as papaverine (see Siuciak, et al. Neuropharmacology (2006) 51:386-396; Becker, et al. Behav Brain Res (2008) 186(2):155-60; Threlfell, et al., J Pharmacol Exp Ther (2009) 328(3):785-795), 2-{4-[pyridin-4-yl-1-(2,2,2-trifluoroethyl)-1H-pyrazol-3-yl]phenoxymethyl}quinoline succinic acid or 2-[4-(1-methyl-4-pyridin-4-yl-1H-pyrazol-3-yl)-phenoxymethyl]quinoline succinic acid (see Schmidt, et al. J Pharmacol Exp Ther (2008) 325:681-690; Threlfell, et al., J Pharmacol Exp Ther (2009) 328(3): 785-795). 0% of inhibition is determined by using DMSO (1% final concentrations).
A Labcyte Echo 555 (Labcyte, Sunnyvale, Calif.) is used to dispense 200 nL from each well of the titration plate to the 384 well assay plate. A solution of enzyme (1/1600 dilution from aliquots; sufficient to produce 20% substrate conversion) and a separate solution of FAM-labeled cAMP PDE from Molecular Devices (product # R7506), at a final concentration of 50 nM are made in the assay buffer (10 mM Tris HCl, pH 7.2, 10 mM MgCl2, 0.05% NaN3 0.01% Tween-20, and 1 mM DTT). The enzyme and the substrate are then added to the assay plates in two consecutive additions of 10 μL, and then shaken to mix. The reaction is allowed to proceed at room temperature for 30 minutes. A binding solution is then made from the kit components, comprised of 80% Solution A, 20% Solution B and binding reagent at a volume of 1/600 the total binding solution. […]
Cc1nc([C@@H]2C[C@H]2c2cn3cccc(F)c3n2)cc(-n2nc(C)nc2C)n1 (relative stereo) [Example 6, 2-((trans)-2-(6-(3,5-dimethyl-1H-1,2,4-triazol-1-yl)-2-methylpyrimidin-4-yl)cyclopropyl)-8-fluoroimidazo[1,2-a]pyridine] was tested, and the Ki was greater than 75 nM. Cc1nc([C@H]2C[C@@H]2c2cn3ccccc3n2)cc(-n2nc(C)nc2C)n1 (stereo in doubt) [Example 1, 2-((1S,2S)-2-(6-(3,5-dimethyl-1H-1,2,4-triazol-1-yl)-2-methylpyrimidin-4-yl)cyclopropyl)imidazo[1,2-a]pyridine] was tested, and the Ki was 5.8 nM. With Cc1nc([C@@H]2C[C@H]2c2cn3cccc(C)c3n2)cc(-n2nc(C)nc2C)n1 (relative stereo) [Example 5, 2-((trans)-2-(6-(3,5-dimethyl-1H-1,2,4-triazol-1-yl)-2-methylpyrimidin-4-yl)cyclopropyl)-8-methylimidazo[1,2-a]pyridine] the Ki was greater than 75 nM. In the case of Cc1ccc2nc([C@@H]3C[C@H]3c3cc(-n4nc(C)nc4C)nc(C)n3)cn2c1 (relative stereo) [Example 3, 2-((trans)-2-(6-(3,5-dimethyl-1H-1,2,4-triazol-1-yl)-2-methylpyrimidin-4-yl)cyclopropyl)-6-methylimidazo[1,2-a]pyridine], the Ki is reported as 24 nM. Compound Cc1nc([C@@H]2C[C@H]2c2nc3ccccn3c2I)cc(-n2nc(C)nc2C)n1 (relative stereo) [Example 8, 2-((trans)-2-(6-(3,5-dimethyl-1H-1,2,4-triazol-1-yl)-2-methylpyrimidin-4-yl)cyclopropyl)-3-iodoimidazo[1,2-a]pyridine] has a Ki of 9 nM. Cc1nc([C@@H]2C[C@H]2c2cn3c(C)cccc3n2)cc(-n2nc(C)nc2C)n1 (relative stereo) [Example 2, 2-((trans)-2-(6-(3,5-dimethyl-1H-1,2,4-triazol-1-yl)-2-methylpyrimidin-4-yl)cyclopropyl)-5-methylimidazo[1,2-a]pyridine] showed a Ki of 8.3 nM. In the case of Cc1nc([C@@H]2C[C@H]2c2nc3ccccn3c2C)cc(-n2nc(C)nc2C)n1 (relative stereo) [Example 9, 2-((trans)-2-(6-(3,5-dimethyl-1H-1,2,4-triazol-1-yl)-2-methylpyrimidin-4-yl)cyclopropyl)-3-methylimidazo[1,2-a]pyridine], the Ki is reported as 2.1 nM. Compound Cc1nc([C@@H]2C[C@H]2c2cn3ccc(F)cc3n2)cc(-n2nc(C)nc2C)n1 (relative stereo) [Example 7, 2-((trans)-2-(6-(3,5-dimethyl-1H-1,2,4-triazol-1-yl)-2-methylpyrimidin-4-yl)cyclopropyl)-7-fluoroimidazo[1,2-a]pyridine] has a Ki of 13 nM. For Cc1ccn2cc([C@@H]3C[C@H]3c3cc(-n4nc(C)nc4C)nc(C)n3)nc2c1 (relative stereo) [Example 4, 2-((trans)-2-(6-(3,5-dimethyl-1H-1,2,4-triazol-1-yl)-2-methylpyrimidin-4-yl)cyclopropyl)-7-methylimidazo[1,2-a]pyridine], the Ki was 44 nM. For Cc1nc([C@@H]2C[C@H]2c2nc3ccccn3c2C#N)cc(-n2nc(C)nc2C)n1 (relative stereo) [Example 11, 2-((trans)-2-(6-(3,5-dimethyl-1H-1,2,4-triazol-1-yl)-2-methylpyrimidin-4-yl)cyclopropyl)imidazo[1,2-a]pyridine-3-carbonitrile], the Ki was greater than 75 nM. C=Cc1c([C@@H]2C[C@H]2c2cc(-n3nc(C)nc3C)nc(C)n2)nc2ccccn12 (relative stereo) [Example 10, 2-((trans)-2-(6-(3,5-dimethyl-1H-1,2,4-triazol-1-yl)-2-methylpyrimidin-4-yl)cyclopropyl)-3-vinylimidazo[1,2-a]pyridine] was tested, and the Ki was 3.8 nM.
